Key:
Assay in all cases: relative viability (nuclei count vs DMSO), 5 days (fraction); higher = more cells survive
[1] = compound: CN(C)C(=N)NC(=N)N [Metformin] + CCNC(=O)c1noc(-c2cc(C(C)C)c(O)cc2O)c1-c1ccc(CN2CCOCC2)cc1 [Luminespib] (partner 0.01 µM)
Procedure, shortened: (§1)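 Lung cancer cell lines in 1536-well plates got either a single drug or a fixed anchor-drug dose together with five library-drug doses (not always all listed) in √10 steps, by pin tool, on the day after seeding. Nuclei were counted after 5 days, and relative viability is the treated-to-vehicle ratio of nuclei counts. Values are medians of duplicate plates.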

[2] = compound: N#CC1(c2ccc(NC(=O)c3cccnc3NCc3ccncc3)cc2)CCCC1 [Apatinib] + CC(=O)Nc1cccc(-n2c(=O)n(C3CC3)c(=O)c3c(Nc4ccc(I)cc4F)n(C)c(=O)c(C)c32)c1 [Trametinib] (partner 0.02 µM)
Procedure, shortened: as §1

[3] = compound: N#CC1(c2ccc(NC(=O)c3cccnc3NCc3ccncc3)cc2)CCCC1 [Apatinib] + C[C@]1(O)C[C@@H](c2nc(-c3ccc4ccc(-c5ccccc5)nc4c3)c3c(N)nccn32)C1 [Linsitinib] (partner 1 µM)
Procedure, shortened: as §1

[4] = compound: N#CC1(c2ccc(NC(=O)c3cccnc3NCc3ccncc3)cc2)CCCC1 [Apatinib] + Nc1ncn([C@H]2C[C@H](O)[C@@H](CO)O2)c(=O)n1 [Decitabine] (partner 2 µM)
Procedure, shortened: as §1

Row | Cell Line | relative viability ([1]; first compound 10 µM) | relative viability ([1]; first compound 31.62 µM) | relative viability ([1]; first compound 100 µM) | relative viability ([1]; first compound 316.23 µM) | relative viability ([1]; first compound 1000 µM) | relative viability ([2]; first compound 0.08 µM) | relative viability ([2]; first compound 0.253 µM) | relative viability ([2]; first compound 0.8 µM) | relative viability ([2]; first compound 2.53 µM) | relative viability ([2]; first compound 8 µM) | relative viability ([3]; first compound 0.08 µM) | relative viability ([3]; first compound 0.253 µM) | relative viability ([3]; first compound 0.8 µM) | relative viability ([3]; first compound 2.53 µM) | relative viability ([3]; first compound 8 µM) | relative viability ([4]; first compound 0.08 µM) | relative viability ([4]; first compound 0.253 µM) | relative viability ([4]; first compound 0.8 µM) | relative viability ([4]; first compound 2.53 µM) | relative viability ([4]; first compound 8 µM)
1 | PC-14 | 0.373 | 0.18 | 0.202 | 0.289 | 0.502 | 0.754 | 0.897 | 0.563 | 0.636 | 0.388 | 0.988 | 1.03 | 0.86 | 0.95 | 1.02 | 0.28 | 0.293 | 0.189 | 0.228 | 0.28
2 | NCI-H650 | 0.953 | 1.03 | 1.06 | 0.92 | 1.09 | 0.98 | 0.918 | 1.02 | 0.963 | 1.02 | 0.787 | 0.871 | 0.756 | 0.734 | 0.663 | 0.35 | 0.331 | 0.332 | 0.418 | 0.626
3 | NCI-H2405 | 0.585 | 0.581 | 0.774 | 0.664 | 0.737 | 0.594 | 0.625 | 0.599 | 0.527 | 0.44 | 1.05 | 1.12 | 1.05 | 0.95 | 0.955 | 0.83 | 0.854 | 0.711 | 0.712 | 0.776
4 | H3255 | 0.858 | 1.01 | 0.88 | 0.657 | 0.867 | 0.655 | 0.588 | 0.669 | 0.597 | 0.535 | 1.17 | 0.819 | 0.954 | 0.896 | 0.836 | 0.707 | 0.553 | 0.578 | 0.542 | 0.517
5 | NCI-H520 | 0.265 | 0.224 | 0.211 | 0.223 | 0.23 | 0.666 | 0.66 | 0.787 | 0.485 | 0.325 | 1.12 | 0.948 | 0.842 | 0.876 | 0.878 | 0.544 | 0.476 | 0.559 | 0.5 | 0.486
6 | SK-LU-1 | 0.204 | 0.204 | 0.221 | 0.204 | 0.244 | 0.498 | 0.541 | 0.545 | 0.495 | 0.446 | 1.1 | 1.3 | 1.04 | 0.809 | 0.787 | 0.724 | 0.782 | 0.671 | 0.667 | 0.675
7 | NCI-H1755 | 0.504 | 0.565 | 0.475 | 0.419 | 0.418 | 0.826 | 0.746 | 0.725 | 0.825 | 0.652 | 0.976 | 0.97 | 0.964 | 0.977 | 0.709 | 0.712 | 0.701 | 0.644 | 0.91 | 0.837
8 | EPLC-272H | 0.398 | 0.335 | 0.27 | 0.25 | 0.413 | 0.297 | 0.264 | 0.301 | 0.321 | 0.234 | 1.19 | 1.07 | 1.23 | 1.23 | 1.12 | 0.395 | 0.324 | 0.405 | 0.307 | 0.342
